Test results as given in US20240417400A1, “ARYL HYDROCARBON RECEPTOR (AHR) MODULATORS AND THERAPEUTIC USES THEREOF” (GALILEO BIOSYSTEMS, INC., priority 2021, published 2024).

Legend:
Type in all cases: cell-based
human keratinocytes [1] = assay: Inflammation of human keratinocytes induced by IL-17 and IFN-α: IL-8 release and cell viability; conditions: IL-17 and IFN-α induced, FIGS. 4A, 4B
From the text: (§1) The cells were exposed to Compound 6 or tapiranof and measured for inhibition of IL-8 release and cell viability. FIG. 4A depicts concentration response curves of inhibition of IL-8 release and cell viability for Compound 6. FIG. 4B depicts concentration response curves of inhibition of IL-8 release and cell viability for tapiranof.

human keratinocytes [2] = assay: Inflammation of human keratinocytes induced by IL-4, IL-13, IL-22 and IFN-γ: CCL2 release and cell viability; conditions: IL-4, IL-13, IL-22 and IFN-γ induced, FIGS. 3A, 3B
From the text: as §1, with “Inflammation of human keratinocytes was induced by IL-4, IL-13, IL-22 and IFN-γ. The” for “The”, “CCL2” for “IL-8”, “3A” for “4A”, “3B” for “4B”

T-cells = assay: Inflammation of T-cells induced by CD2, CD3 and CD28: IL-2 and IL-4 release; conditions: at the highest test concentrations, FIGS. 5A, 5B
From the text: as §1, with “Inflammation of T-cells were induced by CD2, CD3, and CD28. The” for “The”, “IL-2 and IL-4” for “IL-8”, “5A” for “4A”, “5B” for “4B”

[3] = system: gene expression biomarkers (CYP1A1, CCL17/TARC, CCL26/Eotaxin-3, Filaggrin) in freshly excised healthy human skin; assay: Gene expression biomarker activity screen in stimulated human skin explants (RT-qPCR); conditions: 10 μM in media, harvested 24 hours post stimulation
Experimental: Compound 6 and comparative compound tapinarof are evaluated for their ability to inhibit production of gene expression biomarkers using the biomarkers panel described in the below tables. Each compound is dissolved in DMSO at a dilution volume of 1000× and the resultant solutions are stored at −80° C. Concentrations tested include 1 μM, 5 μM, 10 μM, and 25 μM. Freshly excised healthy human skin is dermatomed to an approximate thickness of 750±100 μm using an Integra® dermatome according to US-SOP-3005 and US-SOP-3006. The dermatomed skin is sectioned into 7 mm biopsies and placed into 6.5 mm permeable membrane Transwell@ inserts with the Stratum corneum side apical and a section of collagen between the basal dermal tissue and the permeable membrane (n=4 per test sample). The Transwell® inserts have an average surface area of approximately 0.33 cm^2 and a volume of 0.5 mL. The basal chambers of the inserts are filled with 0.5 mL of Cornification media and the compound solutions are added to the media to a concentration of 10 μM. The inserts are stored in a humidified incubator overnight at 37° C. for approximately 16 hours. The contents of the basal chambers are vacuum aspirated and replaced with 0.5 mL of pre-warmed (ca. 37° C.) Cornification media containing the compound at a concentration of 10 μM and stimulation cocktail. Tissue explants are harvested at 24 hours post stimulation to measure production of the gene expression biomarkers by quantitative reverse transcription polymerase chain reaction (RT-qPCR). […] The test samples include untreated vehicle (control), TH1 stimulation control, TH2 stimulation control, TH17 stimulation control, tapinarof, and Compound 6.

SMILES	inhibition of IL-8 release (human keratinocytes [1])	cell viability (human keratinocytes [2])	inhibition of CCL2 release (human keratinocytes [2])	inhibition of IL-2 release (T-cells)	inhibition of IL-4 release (T-cells)	production of CYP1A1 (gene expression) ([3]; FIG. 1A)	production of CCL17/TARC (gene expression) ([3]; FIG. 1B)	production of CCL26/Eotaxin-3 (gene expression) ([3]; FIG. 1C)	production of Filaggrin (gene expression) ([3]; FIG. 1D)
O=c1c2ccccc2nc2n1CCc1c-2[nH]c2ccccc12 [Compound 6]	inhibited release of IL-8	did not affect cell viability	inhibited release of CCL2	inhibited release of IL-2	inhibited	significant induction	reduction/inhibition	reduction/inhibition	significant induction
CC(C)c1c(O)cc(/C=C/c2ccccc2)cc1O [tapiranof, tapinarof, reference compound]	inhibited release of IL-8	inhibition of cell viability at higher concentrations	inhibited release of CCL2	inhibited release of IL-2	inhibited				
